Assay results as given in the supplement of paper PMC11451515.

System: NOMO1
Experiment: cell viability relative to DMSO control; higher = less cytotoxic
Conditions: 48 h
Summary of the method: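 Viability was expressed as a per-plate percentage of DMSO wells, with cell-free wells as background. Leukemia cells (NOMO1 or SEM at 500 cells/well, P12-Ichikawa at 1000 cells/well) were adapted for at least four passages in each medium and seeded in 1536-well plates (5 μl). Library compounds in DMSO were pin-dosed over an 11-point threefold series from 47 μM to 0.79 nM, and CellTiter-Glo One luminescence was read after 48 h at 37°C.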

[1] = HPLM + 10% dialyzed FBS, 0.000781 µM
[2] = HPLM + 10% dialyzed FBS, 0.00234 µM
[3] = HPLM + 10% dialyzed FBS, 0.00702 µM
[4] = HPLM + 10% dialyzed FBS, 0.0211 µM
[5] = HPLM + 10% dialyzed FBS, 0.0632 µM
[6] = HPLM + 10% dialyzed FBS, 0.19 µM
[7] = HPLM + 10% dialyzed FBS, 0.569 µM
[8] = HPLM + 10% dialyzed FBS, 1.71 µM
[9] = HPLM + 10% dialyzed FBS, 5.12 µM
[10] = HPLM + 10% dialyzed FBS, 15.4 µM
[11] = HPLM + 10% dialyzed FBS, 46.1 µM
[12] = RPMI 5 mM glucose + 10% FBS, 0.000781 µM
[13] = RPMI 5 mM glucose + 10% FBS, 0.00234 µM
[14] = RPMI 5 mM glucose + 10% FBS, 0.00702 µM
[15] = RPMI 5 mM glucose + 10% FBS, 0.0211 µM
[16] = RPMI 5 mM glucose + 10% FBS, 0.0632 µM
[17] = RPMI 5 mM glucose + 10% FBS, 0.19 µM
[18] = RPMI 5 mM glucose + 10% FBS, 0.569 µM
[19] = RPMI 5 mM glucose + 10% FBS, 1.71 µM
[20] = RPMI 5 mM glucose + 10% FBS, 5.12 µM
[21] = RPMI 5 mM glucose + 10% FBS, 15.4 µM
[22] = RPMI 5 mM glucose + 10% FBS, 46.1 µM
[23] = RPMI 5 mM glucose + 10% dialyzed FBS, 0.000781 µM
[24] = RPMI 5 mM glucose + 10% dialyzed FBS, 0.00234 µM
[25] = RPMI 5 mM glucose + 10% dialyzed FBS, 0.00702 µM
[26] = RPMI 5 mM glucose + 10% dialyzed FBS, 0.0211 µM
[27] = RPMI 5 mM glucose + 10% dialyzed FBS, 0.0632 µM
[28] = RPMI 5 mM glucose + 10% dialyzed FBS, 0.19 µM
[29] = RPMI 5 mM glucose + 10% dialyzed FBS, 0.569 µM
[30] = RPMI 5 mM glucose + 10% dialyzed FBS, 1.71 µM
[31] = RPMI 5 mM glucose + 10% dialyzed FBS, 5.12 µM
[32] = RPMI 5 mM glucose + 10% dialyzed FBS, 15.4 µM
[33] = RPMI 5 mM glucose + 10% dialyzed FBS, 46.1 µM

| SMILES | cell viability [1] [%] | cell viability [2] [%] | cell viability [3] [%] | cell viability [4] [%] | cell viability [5] [%] | cell viability [6] [%] | cell viability [7] [%] | cell viability [8] [%] | cell viability [9] [%] | cell viability [10] [%] | cell viability [11] [%] | cell viability [12] [%] | cell viability [13] [%] | cell viability [14] [%] | cell viability [15] [%] | cell viability [16] [%] | cell viability [17] [%] | cell viability [18] [%] | cell viability [19] [%] | cell viability [20] [%] | cell viability [21] [%] | cell viability [22] [%] | cell viability [23] [%] | cell viability [24] [%] | cell viability [25] [%] | cell viability [26] [%] | cell viability [27] [%] | cell viability [28] [%] | cell viability [29] [%] | cell viability [30] [%] | cell viability [31] [%] | cell viability [32] [%] | cell viability [33] [%] |
| --- | --- | --- | --- | --- | --- | --- | --- | --- | --- | --- | --- | --- | --- | --- | --- | --- | --- | --- | --- | --- | --- | --- | --- | --- | --- | --- | --- | --- | --- | --- | --- | --- | --- |
| COc1cc2c(cc1OC)[C@@H]1Cc3ccc(OC)c(OC)c3CN1CC2 | 120 | 129 | 115 | 105 | 118 | 110 | 112 | 117 | 114 | 99.4 | 31.2 | 98.1 | 101 | 94.8 | 97.1 | 106 | 104 | 97.6 | 101 | 102 | 92.7 | 34.3 | 112 | 114 | 116 | 107 | 96.5 | 109 | 95.6 | 97.8 | 106 | 103 | 56 |
| CC(C)c1onc(-c2c(Cl)cccc2Cl)c1COc1ccc(/C=C/c2cccc(C(=O)O)c2)c(Cl)c1 |  |  |  |  |  |  |  |  |  |  |  |  |  |  |  |  |  |  |  |  |  |  | 128 | 124 | 124 | 139 | 114 | 133 | 129 | 132 | 128 | 109 | 107 |
| CNC(=O)c1ccc2c(c1)NC(=O)/C2=C(\Nc1cccc(CN(C)C)c1)c1ccccc1 | 85.5 | 109 | 103 | 100 | 99.9 | 106 | 95 | 91.9 | 45.9 | 63.4 | 0.559 | 93.7 | 84.5 | 93.6 | 94.9 | 93.1 | 93.3 | 95.1 | 87.2 | 80 | 66.5 | 1.26 | 74.6 | 91.7 | 90.5 | 90.7 | 80 | 98.9 | 90.3 | 89.1 | 75.9 | 57.7 | 1.81 |
| O=C(c1cncc(Br)c1)N1CCC(N2CCCC2)CC1 | 97.9 | 122 | 124 | 110 | 103 | 105 | 97.1 | 105 | 103 | 92.2 | 85.3 | 93.5 | 95.9 | 110 | 90.6 | 91.4 | 96.5 | 102 | 93.1 | 94.6 | 85.4 | 84.4 | 112 | 105 | 106 | 106 | 105 | 103 | 100 | 100 | 98.7 | 98.7 | 95.9 |
| CN(C)C/C=C/C(=O)Nc1ccc(C(=O)Nc2cccc(Nc3ncc(Cl)c(-c4c[nH]c5ccccc45)n3)c2)cc1 | 78.8 | 99.4 | 101 | 94.6 | 88.4 | 85.2 | 5.25 | 4.49 | 4.42 | 3.89 | 3.78 | 81.9 | 91.4 | 84.4 | 93.8 | 93.5 | 98.7 | 5.96 | 4.95 | 4.62 | 3.68 | 3.47 | 80 | 87.7 | 91.2 | 94.7 | 95 | 73.9 | 3.8 | 3.8 | 3.2 | 2.9 | 3.15 |
| Cc1nc(-c2ccc(OCC(C)C)c(C#N)c2)sc1C(=O)O | 104 | 123 | 127 | 128 | 142 | 126 | 153 | 137 | 140 | 118 | 138 | 111 | 128 | 119 | 121 | 137 | 129 | 138 | 137 | 117 | 131 | 118 | 120 | 123 | 120 | 116 | 132 | 131 | 122 | 125 | 125 | 125 | 129 |
| CN(CCOc1ccc(CC2SC(=O)NC2=O)cc1)c1ccccn1 (configuration not stated) |  |  |  |  |  |  |  |  |  |  |  | 110 | 113 | 121 | 108 | 115 | 117 | 113 | 112 | 127 | 113 | 109 |  |  |  |  |  |  |  |  |  |  |  |
| CCn1nnc2c(N3CCOCC3)nc(-c3ccc(NC(=O)Nc4ccc(C(=O)N5CCN(C)CC5)cc4)cc3)nc21 | 117 | 109 | 94.2 | 67.2 | 63.4 | 53.9 | 101 | 65.7 | 60.7 | 51.4 | 48 | 90.8 | 107 | 94.1 | 85.6 | 76.5 | 67.7 | 105 | 79.9 | 72.4 | 69.9 | 61.2 | 89.3 | 97.2 | 89.7 | 75.3 | 60.9 | 60.2 | 89.8 | 62.5 | 53.5 | 55.9 | 56 |
| Nc1ccc(C(=O)c2cc3c(ccc4ccccc43)[nH]2)cc1 | 120 | 121 | 123 | 129 | 113 | 112 | 117 | 110 | 89.5 | 40.5 | 26.6 | 118 | 112 | 110 | 117 | 121 | 116 | 101 | 109 | 99.2 | 56.4 | 18.9 |  |  |  |  |  |  |  |  |  |  |  |
